The record followed here is ChEMBL document CHEMBL5661979, “Pharmacological inhibition of BMK1 suppresses tumor growth through promyelocytic leukemia protein” (Cancer Cell, 2010).

A word on the inhibition: it is the change of the read-out against control, counted positive when it falls. One may read the IC50 as the midpoint of a concentration-inhibition curve. Read a low IC50 as greater potency in that assay.

Data set [1] can be described thus: Toxicity in C57Bl/6 mouse assessed as effect on amylase level at 50 mg/kg, ip for 14 days (reference value: 1027 U/L). It is filed as organism-based. The settings on record: in vivo, 336 h, time 14 day.
Data set [2] concerns the target Epidermal growth factor receptor (Homo sapiens, UniProt P00533). Description: Inhibition of EGFR in human HeLa cells lysate at 2 uM pre incubated for 15 mins followed by ADP acyl phosphate probe addition and measured after 10 mins by LC-MS/MS analysis relative to control. It counts as subcellular. The following applies: time 25.0 min.
The target of data set [3] is Mitogen-activated protein kinase 3 (Homo sapiens, UniProt P27361). Description: Inhibition of ERK1 in human HeLa cells lysate at 10 uM pre incubated for 15 mins followed by ADP acyl phosphate probe addition and measured after 10 mins by LC-MS/MS analysis relative to control. It is filed as subcellular. The following applies: time 25.0 min.
Mitogen-activated protein kinase 3, sequence (P27361 whole entry): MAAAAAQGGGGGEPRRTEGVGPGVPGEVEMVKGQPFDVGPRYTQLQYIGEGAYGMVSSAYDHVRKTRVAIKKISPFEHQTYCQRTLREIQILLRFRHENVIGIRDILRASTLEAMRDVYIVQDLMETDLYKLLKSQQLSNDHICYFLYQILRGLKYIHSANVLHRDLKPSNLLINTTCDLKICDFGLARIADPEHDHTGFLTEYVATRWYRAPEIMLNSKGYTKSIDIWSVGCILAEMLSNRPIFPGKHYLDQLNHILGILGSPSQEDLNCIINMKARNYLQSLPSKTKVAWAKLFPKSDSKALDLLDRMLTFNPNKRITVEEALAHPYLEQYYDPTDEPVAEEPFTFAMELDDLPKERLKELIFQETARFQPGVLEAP
Data set [4] in a line: Inhibition of SRPK1/2 in human HeLa cells lysate pre incubated for 15 mins followed by ADP acyl phosphate probe addition and measured after 10 mins by LC-MS/MS analysis. It is filed as subcellular.
Data set [5] deals with Ribosomal protein S6 kinase alpha-3 (Homo sapiens, UniProt P51812). Description: Inhibition of RSK2 domain 2 K2 site in human HeLa cells lysate pre incubated for 15 mins followed by ADP acyl phosphate probe addition and measured after 10 mins by LC-MS/MS analysis. It is filed as subcellular.
Ribosomal protein S6 kinase alpha-3, sequence (P51812 whole entry, the tested form may be a part): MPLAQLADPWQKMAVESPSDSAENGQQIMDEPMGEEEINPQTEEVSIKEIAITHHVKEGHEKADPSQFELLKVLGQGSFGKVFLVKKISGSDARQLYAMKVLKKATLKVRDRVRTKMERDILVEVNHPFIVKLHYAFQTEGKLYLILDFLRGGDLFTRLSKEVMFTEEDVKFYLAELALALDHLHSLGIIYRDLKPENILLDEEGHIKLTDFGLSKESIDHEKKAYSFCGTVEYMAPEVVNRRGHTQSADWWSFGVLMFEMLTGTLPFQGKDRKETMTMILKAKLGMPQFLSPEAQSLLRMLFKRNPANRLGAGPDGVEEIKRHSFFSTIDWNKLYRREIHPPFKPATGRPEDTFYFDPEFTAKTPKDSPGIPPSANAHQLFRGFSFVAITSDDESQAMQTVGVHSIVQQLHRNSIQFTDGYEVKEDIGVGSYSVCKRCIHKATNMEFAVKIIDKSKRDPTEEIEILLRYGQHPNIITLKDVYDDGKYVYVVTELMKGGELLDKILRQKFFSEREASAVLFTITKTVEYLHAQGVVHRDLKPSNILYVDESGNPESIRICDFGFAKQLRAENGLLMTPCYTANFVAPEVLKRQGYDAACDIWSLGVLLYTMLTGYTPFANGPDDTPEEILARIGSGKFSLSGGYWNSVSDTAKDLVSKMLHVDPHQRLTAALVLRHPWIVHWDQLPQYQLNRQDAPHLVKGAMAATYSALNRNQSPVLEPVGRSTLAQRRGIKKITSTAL
Data set [6] concerns the target T1, Serine/threonine-protein kinase D3 (Homo sapiens) (UniProt O94806).
T1 sequence (whole entry): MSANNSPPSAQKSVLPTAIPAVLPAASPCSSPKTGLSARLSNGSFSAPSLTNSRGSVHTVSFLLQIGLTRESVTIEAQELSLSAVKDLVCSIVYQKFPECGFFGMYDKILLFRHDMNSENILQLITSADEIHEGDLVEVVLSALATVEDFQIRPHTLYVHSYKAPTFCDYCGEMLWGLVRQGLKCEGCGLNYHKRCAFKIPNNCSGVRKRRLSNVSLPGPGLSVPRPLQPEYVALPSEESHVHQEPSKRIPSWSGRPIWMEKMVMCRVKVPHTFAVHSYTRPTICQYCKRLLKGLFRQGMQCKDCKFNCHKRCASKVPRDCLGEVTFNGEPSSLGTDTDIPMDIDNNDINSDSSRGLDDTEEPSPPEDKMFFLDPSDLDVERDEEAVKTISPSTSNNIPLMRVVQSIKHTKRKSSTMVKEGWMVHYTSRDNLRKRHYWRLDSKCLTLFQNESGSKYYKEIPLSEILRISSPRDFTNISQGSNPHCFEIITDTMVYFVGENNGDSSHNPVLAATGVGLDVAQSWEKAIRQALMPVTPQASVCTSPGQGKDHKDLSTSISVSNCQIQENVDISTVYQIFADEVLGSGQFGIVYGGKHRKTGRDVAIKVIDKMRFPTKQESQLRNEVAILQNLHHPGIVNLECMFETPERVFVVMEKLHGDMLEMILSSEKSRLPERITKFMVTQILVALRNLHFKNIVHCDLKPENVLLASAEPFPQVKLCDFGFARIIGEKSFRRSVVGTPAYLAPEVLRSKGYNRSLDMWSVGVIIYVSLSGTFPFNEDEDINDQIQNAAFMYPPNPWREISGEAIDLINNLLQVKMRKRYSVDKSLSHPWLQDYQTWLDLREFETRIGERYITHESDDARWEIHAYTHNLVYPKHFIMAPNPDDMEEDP
Description: Inhibition of PKD3 in human HeLa cells lysate at 2 uM pre incubated for 15 mins followed by ADP acyl phosphate probe addition and measured after 10 mins by LC-MS/MS analysis relative to control. It counts as subcellular. The settings on record: time 25.0 min.

For data set [7], the target named is T2, Serine/threonine-protein kinase TAO2 (Homo sapiens) (UniProt Q9UL54).
T2 sequence (whole entry): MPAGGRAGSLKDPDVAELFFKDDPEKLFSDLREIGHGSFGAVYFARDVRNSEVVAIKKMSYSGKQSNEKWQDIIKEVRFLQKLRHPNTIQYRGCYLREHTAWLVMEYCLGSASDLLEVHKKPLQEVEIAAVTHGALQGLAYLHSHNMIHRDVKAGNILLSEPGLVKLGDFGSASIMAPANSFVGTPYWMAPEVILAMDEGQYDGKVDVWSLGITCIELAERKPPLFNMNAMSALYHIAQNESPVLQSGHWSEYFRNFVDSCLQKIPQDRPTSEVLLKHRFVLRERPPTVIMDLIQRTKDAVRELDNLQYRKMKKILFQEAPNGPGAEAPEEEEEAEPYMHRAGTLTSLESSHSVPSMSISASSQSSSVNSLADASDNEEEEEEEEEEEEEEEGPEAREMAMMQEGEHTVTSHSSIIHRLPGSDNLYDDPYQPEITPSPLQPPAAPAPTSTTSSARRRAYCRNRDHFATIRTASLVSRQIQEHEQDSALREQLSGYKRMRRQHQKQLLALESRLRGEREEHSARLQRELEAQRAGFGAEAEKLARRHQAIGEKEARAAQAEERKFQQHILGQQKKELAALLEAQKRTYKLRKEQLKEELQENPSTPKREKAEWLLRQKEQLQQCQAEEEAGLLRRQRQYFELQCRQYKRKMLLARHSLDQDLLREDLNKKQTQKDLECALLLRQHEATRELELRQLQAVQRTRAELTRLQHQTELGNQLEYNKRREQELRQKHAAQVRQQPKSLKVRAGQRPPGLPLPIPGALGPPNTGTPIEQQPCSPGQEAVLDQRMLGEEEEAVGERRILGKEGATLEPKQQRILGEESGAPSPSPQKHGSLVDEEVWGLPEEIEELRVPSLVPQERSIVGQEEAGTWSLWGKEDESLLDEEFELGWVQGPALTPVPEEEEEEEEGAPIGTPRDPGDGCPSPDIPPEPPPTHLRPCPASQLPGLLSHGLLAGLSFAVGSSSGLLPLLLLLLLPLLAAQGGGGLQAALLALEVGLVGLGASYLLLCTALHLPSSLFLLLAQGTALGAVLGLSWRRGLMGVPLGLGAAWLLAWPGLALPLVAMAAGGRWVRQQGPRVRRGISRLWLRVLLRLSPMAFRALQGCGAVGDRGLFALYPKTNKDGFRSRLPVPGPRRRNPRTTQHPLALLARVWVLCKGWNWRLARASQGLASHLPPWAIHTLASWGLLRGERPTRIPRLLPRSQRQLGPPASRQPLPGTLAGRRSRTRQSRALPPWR
Put plainly: Inhibition of TAO2 in human HeLa cells lysate at 2 uM pre incubated for 15 mins followed by ATP acyl phosphate probe addition and measured after 10 mins by LC-MS/MS analysis relative to control. It counts as subcellular. The following applies: time 25.0 min.

For data set [8], the target named is Non-receptor tyrosine-protein kinase TNK1 (Homo sapiens, UniProt Q13470). Description: Inhibition of TNK1 in human HeLa cells lysate pre incubated for 15 mins followed by ADP acyl phosphate probe addition and measured after 10 mins by LC-MS/MS analysis. It is filed as subcellular.
Non-receptor tyrosine-protein kinase TNK1, sequence (Q13470 whole entry): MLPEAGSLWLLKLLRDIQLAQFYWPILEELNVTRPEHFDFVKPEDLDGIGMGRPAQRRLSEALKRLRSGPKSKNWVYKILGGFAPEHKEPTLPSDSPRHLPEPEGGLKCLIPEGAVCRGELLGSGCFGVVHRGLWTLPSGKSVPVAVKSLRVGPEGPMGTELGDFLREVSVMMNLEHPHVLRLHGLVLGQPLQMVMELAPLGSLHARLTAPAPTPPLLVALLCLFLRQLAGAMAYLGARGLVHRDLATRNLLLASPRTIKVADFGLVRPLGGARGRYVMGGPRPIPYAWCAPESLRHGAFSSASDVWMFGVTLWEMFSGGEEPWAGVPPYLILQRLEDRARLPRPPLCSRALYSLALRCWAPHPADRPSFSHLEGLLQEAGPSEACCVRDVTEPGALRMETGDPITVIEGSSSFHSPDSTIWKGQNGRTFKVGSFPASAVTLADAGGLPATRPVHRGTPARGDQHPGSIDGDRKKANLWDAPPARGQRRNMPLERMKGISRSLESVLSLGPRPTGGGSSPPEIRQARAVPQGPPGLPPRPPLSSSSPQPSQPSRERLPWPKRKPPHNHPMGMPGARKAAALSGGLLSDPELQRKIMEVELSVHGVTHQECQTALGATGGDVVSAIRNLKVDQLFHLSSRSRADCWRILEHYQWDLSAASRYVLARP
Data set [9] deals with Serine/threonine-protein kinase PLK1 (Homo sapiens, UniProt P53350). Put plainly: Inhibition of PLK1 in human HeLa cells lysate pre incubated for 15 mins followed by ADP acyl phosphate probe addition and measured after 10 mins by LC-MS/MS analysis. It counts as subcellular.
Serine/threonine-protein kinase PLK1, sequence (P53350 whole entry): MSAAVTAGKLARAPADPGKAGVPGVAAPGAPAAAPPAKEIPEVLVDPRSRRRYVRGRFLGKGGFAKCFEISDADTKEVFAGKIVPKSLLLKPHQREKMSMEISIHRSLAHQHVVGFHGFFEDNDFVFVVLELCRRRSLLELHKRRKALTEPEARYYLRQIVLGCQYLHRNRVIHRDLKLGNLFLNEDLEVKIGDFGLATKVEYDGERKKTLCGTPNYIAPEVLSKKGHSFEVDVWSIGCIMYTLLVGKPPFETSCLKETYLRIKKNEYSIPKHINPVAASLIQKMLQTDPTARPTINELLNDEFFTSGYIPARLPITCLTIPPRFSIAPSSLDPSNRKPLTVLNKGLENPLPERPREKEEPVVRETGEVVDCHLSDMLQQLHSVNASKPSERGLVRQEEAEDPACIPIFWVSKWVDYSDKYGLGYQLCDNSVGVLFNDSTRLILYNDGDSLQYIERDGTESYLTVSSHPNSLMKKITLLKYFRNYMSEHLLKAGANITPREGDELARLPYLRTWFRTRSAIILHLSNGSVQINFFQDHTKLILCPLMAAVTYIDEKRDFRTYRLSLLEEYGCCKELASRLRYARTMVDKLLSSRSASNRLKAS
Data set [10] addresses Serine/threonine-protein kinase tousled-like 1 (Homo sapiens, UniProt Q9UKI8). Put plainly: Inhibition of TLK1 in human HeLa cells lysate pre incubated for 15 mins followed by ADP acyl phosphate probe addition and measured after 10 mins by LC-MS/MS analysis. It is filed as subcellular.

Serine/threonine-protein kinase tousled-like 1, sequence (Q9UKI8 whole entry): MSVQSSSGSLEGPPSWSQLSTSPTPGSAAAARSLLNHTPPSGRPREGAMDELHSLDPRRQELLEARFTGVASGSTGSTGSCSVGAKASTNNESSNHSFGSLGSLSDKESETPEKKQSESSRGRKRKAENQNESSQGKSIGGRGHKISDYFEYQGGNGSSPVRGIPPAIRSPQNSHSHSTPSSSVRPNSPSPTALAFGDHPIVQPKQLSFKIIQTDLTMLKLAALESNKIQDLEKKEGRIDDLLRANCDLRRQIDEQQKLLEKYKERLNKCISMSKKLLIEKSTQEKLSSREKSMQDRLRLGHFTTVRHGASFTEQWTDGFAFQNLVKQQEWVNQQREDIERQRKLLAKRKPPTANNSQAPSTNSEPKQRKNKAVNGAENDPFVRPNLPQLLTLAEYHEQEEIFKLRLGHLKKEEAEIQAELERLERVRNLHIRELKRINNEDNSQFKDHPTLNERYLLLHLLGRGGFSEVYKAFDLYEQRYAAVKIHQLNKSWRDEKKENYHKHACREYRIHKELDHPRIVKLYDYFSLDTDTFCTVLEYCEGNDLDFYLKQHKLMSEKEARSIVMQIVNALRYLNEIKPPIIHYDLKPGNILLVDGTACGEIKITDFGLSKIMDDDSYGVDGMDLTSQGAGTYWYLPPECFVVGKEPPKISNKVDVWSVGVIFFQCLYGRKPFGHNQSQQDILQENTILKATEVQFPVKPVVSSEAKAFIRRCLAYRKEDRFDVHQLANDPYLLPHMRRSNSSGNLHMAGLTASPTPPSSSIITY
Epidermal growth factor receptor, sequence (P00533 whole entry): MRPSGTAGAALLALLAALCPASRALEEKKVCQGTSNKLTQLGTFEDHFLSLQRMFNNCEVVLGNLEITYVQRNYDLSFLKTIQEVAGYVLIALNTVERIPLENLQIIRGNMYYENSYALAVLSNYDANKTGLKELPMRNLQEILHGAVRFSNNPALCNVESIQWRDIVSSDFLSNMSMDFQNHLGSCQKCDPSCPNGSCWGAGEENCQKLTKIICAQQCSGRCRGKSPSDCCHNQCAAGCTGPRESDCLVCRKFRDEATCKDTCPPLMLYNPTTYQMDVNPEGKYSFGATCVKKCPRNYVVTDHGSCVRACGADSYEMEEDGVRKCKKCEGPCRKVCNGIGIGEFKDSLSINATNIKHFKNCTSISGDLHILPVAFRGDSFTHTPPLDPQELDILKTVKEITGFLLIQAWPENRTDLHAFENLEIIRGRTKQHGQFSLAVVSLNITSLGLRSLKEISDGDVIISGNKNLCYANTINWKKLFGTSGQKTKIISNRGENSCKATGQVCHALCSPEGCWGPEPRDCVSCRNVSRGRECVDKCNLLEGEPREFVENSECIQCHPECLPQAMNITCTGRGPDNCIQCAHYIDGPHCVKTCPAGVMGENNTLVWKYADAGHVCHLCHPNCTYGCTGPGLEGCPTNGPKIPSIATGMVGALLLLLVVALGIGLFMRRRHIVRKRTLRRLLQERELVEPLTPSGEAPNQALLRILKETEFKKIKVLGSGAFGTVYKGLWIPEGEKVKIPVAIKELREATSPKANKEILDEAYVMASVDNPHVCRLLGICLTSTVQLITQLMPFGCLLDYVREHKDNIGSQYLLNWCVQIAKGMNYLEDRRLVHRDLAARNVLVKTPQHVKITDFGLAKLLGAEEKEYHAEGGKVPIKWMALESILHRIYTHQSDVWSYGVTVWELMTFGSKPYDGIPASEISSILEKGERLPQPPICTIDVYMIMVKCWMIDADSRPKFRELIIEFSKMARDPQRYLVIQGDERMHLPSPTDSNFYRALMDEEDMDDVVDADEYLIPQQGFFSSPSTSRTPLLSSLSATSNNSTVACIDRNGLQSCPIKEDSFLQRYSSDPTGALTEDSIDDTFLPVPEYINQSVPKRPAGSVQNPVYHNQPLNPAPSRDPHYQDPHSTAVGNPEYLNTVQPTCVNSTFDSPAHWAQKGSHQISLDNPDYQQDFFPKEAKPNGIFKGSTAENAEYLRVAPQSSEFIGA

In the case of `CCOc1cc(N2CCC(O)CC2)ccc1Nc1ncc2c(n1)N(C)c1ccccc1C(=O)N2C`, the Activity in [1] stood at 664 U/L. Also, the inhibition is 12.2% in data set [2], -3.9% in [3], 5.5% in data set [6] and -8.5% in data set [7]. The IC50 in data set [4] is more than 50 µM; in data set [5], 47 µM; in [8], 10 µM; in data set [9] it was more than 50 µM; in data set [10], more than 50 µM.
